Source: PubChem BioAssay (NCI)
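GI50 is the concentration that inhibits growth by half. TGI: total growth inhibition.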

Key:
Assay in all cases: NCI anticancer screen, dose series, 384-well format
HL-60(TB) leukemia = test system: HL-60(TB) leukemia
SK-MEL-5 melanoma = test system: SK-MEL-5 melanoma
SNB-75 CNS = test system: SNB-75 CNS
A549 NSCLC = test system: A549 NSCLC
HT29 colon = test system: HT29 colon
RPMI-8226 leukemia = test system: RPMI-8226 leukemia
CAKI-1 renal = test system: CAKI-1 renal
SF-539 CNS = test system: SF-539 CNS
MOLT-4 leukemia = test system: MOLT-4 leukemia
T-47D breast = test system: T-47D breast
MDA-MB-468 breast = test system: MDA-MB-468 breast
NCI/ADR-RES ovarian = test system: NCI/ADR-RES ovarian
SR leukemia = test system: SR leukemia
RXF 393 renal = test system: RXF 393 renal
M14 melanoma = test system: M14 melanoma
MALME-3M melanoma = test system: MALME-3M melanoma
ACHN renal = test system: ACHN renal
SW-620 colon = test system: SW-620 colon
NCI-H322M lung = test system: NCI-H322M lung
HS 578T breast = test system: HS 578T breast
786-0 renal = test system: 786-0 renal
BT-549 breast = test system: BT-549 breast
DU-145 prostate = test system: DU-145 prostate
SNB-19 CNS = test system: SNB-19 CNS
NCI-H522 lung = test system: NCI-H522 lung
HOP-62 NSCLC = test system: HOP-62 NSCLC
NCI-H23 lung = test system: NCI-H23 lung
UO-31 renal = test system: UO-31 renal
UACC-257 melanoma = test system: UACC-257 melanoma
OVCAR-4 ovarian = test system: OVCAR-4 ovarian
HCT-116 colon = test system: HCT-116 colon
NCI-H226 lung = test system: NCI-H226 lung
SF-268 CNS = test system: SF-268 CNS
SK-OV-3 ovarian = test system: SK-OV-3 ovarian
OVCAR-8 ovarian = test system: OVCAR-8 ovarian
TK-10 renal = test system: TK-10 renal
HCC-2998 colon = test system: HCC-2998 colon
PC-3 prostate = test system: PC-3 prostate
MDA-MB-435 melanoma = test system: MDA-MB-435 melanoma
HOP-92 NSCLC = test system: HOP-92 NSCLC
OVCAR-3 ovarian = test system: OVCAR-3 ovarian
KM12 colon = test system: KM12 colon
NCI-H460 NSCLC = test system: NCI-H460 NSCLC
UACC-62 melanoma = test system: UACC-62 melanoma
U251 glioblastoma = test system: U251 glioblastoma
HCT-15 colon = test system: HCT-15 colon
COLO 205 colon = test system: COLO 205 colon
IGROV1 ovarian = test system: IGROV1 ovarian
LOX IMVI melanoma = test system: LOX IMVI melanoma
A498 renal = test system: A498 renal
MCF7 breast = test system: MCF7 breast
EKVX NSCLC = test system: EKVX NSCLC
OVCAR-5 ovarian = test system: OVCAR-5 ovarian
MDA-MB-231 breast = test system: MDA-MB-231 breast
SF-295 CNS = test system: SF-295 CNS
SN12C renal = test system: SN12C renal
SK-MEL-28 melanoma = test system: SK-MEL-28 melanoma

## C[C@]12CC[C@@H]3c4ccc(OC(=O)N(CCCl)CCCl)cc4CC[C@H]3[C@@H]1CC[C@@H]2OP(=O)(O)O
HL-60(TB) leukemia
  GI50: > 100 µM
  TGI: > 100 µM
SK-MEL-5 melanoma
  GI50: > 100 µM
  TGI: > 100 µM
SNB-75 CNS
  GI50: > 100 µM
  TGI: > 100 µM
A549 NSCLC
  GI50: > 100 µM
  TGI: > 100 µM
HT29 colon
  GI50: > 100 µM
  TGI: > 100 µM
RPMI-8226 leukemia
  GI50: > 100 µM
  TGI: > 100 µM
CAKI-1 renal
  GI50: > 100 µM
  TGI: > 100 µM
SF-539 CNS
  GI50: > 100 µM
  TGI: > 100 µM
MOLT-4 leukemia
  GI50: > 100 µM
  TGI: > 100 µM
T-47D breast
  GI50: > 100 µM
  TGI: > 100 µM
MDA-MB-468 breast
  GI50: > 100 µM
  TGI: > 100 µM
NCI/ADR-RES ovarian
  GI50: > 100 µM
  TGI: > 100 µM
SR leukemia
  GI50: > 100 µM
  TGI: > 100 µM
RXF 393 renal
  GI50: 47.7 µM
  TGI: > 100 µM
M14 melanoma
  GI50: > 100 µM
  TGI: > 100 µM
MALME-3M melanoma
  GI50: > 100 µM
  TGI: > 100 µM
ACHN renal
  GI50: > 100 µM
  TGI: > 100 µM
SW-620 colon
  GI50: > 100 µM
  TGI: > 100 µM
NCI-H322M lung
  GI50: > 100 µM
  TGI: > 100 µM
HS 578T breast
  GI50: > 100 µM
  TGI: > 100 µM
786-0 renal
  GI50: > 100 µM
  TGI: > 100 µM
BT-549 breast
  GI50: 25 µM
  TGI: > 100 µM
DU-145 prostate
  GI50: > 100 µM
  TGI: > 100 µM
SNB-19 CNS
  GI50: > 100 µM
  TGI: > 100 µM
NCI-H522 lung
  GI50: > 100 µM
  TGI: > 100 µM
HOP-62 NSCLC
  GI50: > 100 µM
  TGI: > 100 µM
NCI-H23 lung
  GI50: > 100 µM
  TGI: > 100 µM
UO-31 renal
  GI50: > 100 µM
  TGI: > 100 µM
UACC-257 melanoma
  GI50: > 100 µM
  TGI: > 100 µM
OVCAR-4 ovarian
  GI50: > 100 µM
  TGI: > 100 µM
HCT-116 colon
  GI50: > 100 µM
  TGI: > 100 µM
NCI-H226 lung
  GI50: > 100 µM
  TGI: > 100 µM
SF-268 CNS
  GI50: > 100 µM
  TGI: > 100 µM
SK-OV-3 ovarian
  GI50: > 100 µM
  TGI: > 100 µM
OVCAR-8 ovarian
  GI50: > 100 µM
  TGI: > 100 µM
TK-10 renal
  GI50: > 100 µM
  TGI: > 100 µM
HCC-2998 colon
  GI50: > 100 µM
  TGI: > 100 µM
PC-3 prostate
  GI50: > 100 µM
  TGI: > 100 µM
MDA-MB-435 melanoma
  GI50: 41.2 µM
  TGI: > 100 µM
HOP-92 NSCLC
  GI50: > 100 µM
  TGI: > 100 µM
OVCAR-3 ovarian
  GI50: > 100 µM
  TGI: > 100 µM
KM12 colon
  GI50: > 100 µM
  TGI: > 100 µM
NCI-H460 NSCLC
  GI50: > 100 µM
  TGI: > 100 µM
UACC-62 melanoma
  GI50: > 100 µM
  TGI: > 100 µM
U251 glioblastoma
  GI50: > 100 µM
  TGI: > 100 µM
HCT-15 colon
  GI50: > 100 µM
  TGI: > 100 µM
COLO 205 colon
  GI50: > 100 µM
  TGI: > 100 µM
IGROV1 ovarian
  GI50: > 100 µM
  TGI: > 100 µM
LOX IMVI melanoma
  GI50: > 100 µM
  TGI: > 100 µM
A498 renal
  GI50: > 100 µM
  TGI: > 100 µM
MCF7 breast
  GI50: > 100 µM
  TGI: > 100 µM
EKVX NSCLC
  GI50: > 100 µM
  TGI: > 100 µM
OVCAR-5 ovarian
  GI50: > 100 µM
  TGI: > 100 µM
MDA-MB-231 breast
  GI50: > 100 µM
  TGI: > 100 µM
SF-295 CNS
  GI50: > 100 µM
  TGI: > 100 µM
SN12C renal
  GI50: > 100 µM
  TGI: > 100 µM
SK-MEL-28 melanoma
  GI50: > 100 µM
  TGI: > 100 µM
